Data reported in ChEMBL document CHEMBL5096234, “Discovery, Optimization, and Evaluation of Selective CDK4/6 Inhibitors for the Treatment of Breast Cancer” (J Med Chem, 2022).
One block for each compound: values may come before it.

Tests used:
CDK6/cyclin D1 = CDK6/cyclin D1 (Homo sapiens, UniProt Q00534); assay: Inhibition of CDK6/cyclin-D1 (unknown origin) in presence of ATP by time resolved-FRET assay; type: protein-complex assay
CDK4/Cyclin D3 = CDK4/Cyclin D3 (Homo sapiens, UniProt P11802); assay: Inhibition of CDK4/cyclin-D3 (unknown origin) in presence of ATP by time resolved-FRET assay; type: protein-complex assay
MCF7 [1] = assay: Antiproliferative activity against human MCF7 cells assessed as cell growth inhibition incubated for 72 hrs by CCK-8 assay; type: functional
CDK9/cyclin T1 = CDK9/cyclin T1 (Homo sapiens, UniProt P50750); assay: Inhibition of CDK9/Cyclin T1 (unknown origin) in presence of ATP by time resolved-FRET assay; type: protein-complex assay
CDK7/Cyclin H/MNAT1 = CDK7/Cyclin H/MNAT1 (Homo sapiens, UniProt P50613); assay: Inhibition of CDK7/cyclin H/MAT1 (unknown origin) in presence of ATP by time resolved-FRET assay; type: protein-complex assay
[2] = Inhibition of CDK1/cyclin B (unknown origin) in presence of ATP by time resolved-FRET assay; design: species or system Homo sapiens
CDK2/Cyclin A2 = CDK2/Cyclin A2 (Homo sapiens, UniProt P24941); assay: Inhibition of CDK2/Cyclin A (unknown origin) in presence of ATP by time resolved-FRET assay; type: protein-complex assay
MCF7 [3] = assay: Induction of cell cycle arrest in human MCF7 cells assessed as accumulation of cells at G1 phase at 1.5 uM incubated for 24 hrs by propidium iodide staining based flow cytometry analysis (reference value: 57.38%); type: functional
MCF7 [4] = assay: Induction of cell cycle arrest in human MCF7 cells assessed as accumulation of cells at G2 phase at 1.5 uM incubated for 24 hrs by propidium iodide staining based flow cytometry analysis (reference value: 29.66%); type: functional
MCF-10A = assay: Antiproliferative activity against human MCF-10A cells assessed as cell growth inhibition incubated for 72 hrs by CCK-8 assay; type: functional
T47D [5] = assay: Induction of cell cycle arrest in human T47D cells assessed as accumulation of cells at G1 phase at 1.5 uM incubated for 24 hrs by propidium iodide staining based flow cytometry analysis (reference value: 69.55 %); type: functional
T47D [6] = assay: Antiproliferative activity against human T47D cells assessed as cell growth inhibition incubated for 72 hrs by CCK-8 assay; type: functional
T47D [7] = assay: Induction of cell cycle arrest in human T47D cells assessed as accumulation of cells at G2 phase at 1.5 uM incubated for 24 hrs by propidium iodide staining based flow cytometry analysis (reference value: 16.57%); type: functional
MCF7 [8] = assay: Induction of cell cycle arrest in human MCF7 cells assessed as accumulation of cells at G1 phase at 2.5 uM incubated for 24 hrs by propidium iodide staining based flow cytometry analysis (reference value: 57.38%); type: functional
MCF7 [9] = assay: Induction of cell cycle arrest in human MCF7 cells assessed as accumulation of cells at G2 phase at 2.5 uM incubated for 24 hrs by propidium iodide staining based flow cytometry analysis (reference value: 29.66%); type: functional
ZR-75-1 = assay: Antiproliferative activity against human ZR-75-1 cells assessed as cell growth inhibition incubated for 72 hrs by CCK-8 assay; type: functional

CDK6/cyclin D1, sequence (P24385 whole entry): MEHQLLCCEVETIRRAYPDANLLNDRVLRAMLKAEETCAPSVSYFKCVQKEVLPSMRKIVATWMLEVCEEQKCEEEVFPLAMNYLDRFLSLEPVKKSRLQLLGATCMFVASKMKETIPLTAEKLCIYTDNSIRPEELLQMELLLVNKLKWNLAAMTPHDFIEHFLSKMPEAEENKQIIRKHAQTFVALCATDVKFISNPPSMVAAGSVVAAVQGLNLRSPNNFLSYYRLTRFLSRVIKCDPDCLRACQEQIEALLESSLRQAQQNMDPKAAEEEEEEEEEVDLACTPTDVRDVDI
CDK6/cyclin D1, sequence (Q00534 whole entry): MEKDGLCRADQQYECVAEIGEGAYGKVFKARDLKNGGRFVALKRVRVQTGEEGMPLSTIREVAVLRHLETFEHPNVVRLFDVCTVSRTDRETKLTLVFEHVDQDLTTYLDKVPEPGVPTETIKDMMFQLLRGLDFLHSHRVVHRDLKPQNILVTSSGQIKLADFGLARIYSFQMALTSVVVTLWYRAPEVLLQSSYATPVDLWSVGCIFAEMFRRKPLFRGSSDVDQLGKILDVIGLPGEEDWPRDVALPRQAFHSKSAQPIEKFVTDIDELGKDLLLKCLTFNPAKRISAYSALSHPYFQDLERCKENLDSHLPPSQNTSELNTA
CDK9/cyclin T1, sequence (O60563 whole entry): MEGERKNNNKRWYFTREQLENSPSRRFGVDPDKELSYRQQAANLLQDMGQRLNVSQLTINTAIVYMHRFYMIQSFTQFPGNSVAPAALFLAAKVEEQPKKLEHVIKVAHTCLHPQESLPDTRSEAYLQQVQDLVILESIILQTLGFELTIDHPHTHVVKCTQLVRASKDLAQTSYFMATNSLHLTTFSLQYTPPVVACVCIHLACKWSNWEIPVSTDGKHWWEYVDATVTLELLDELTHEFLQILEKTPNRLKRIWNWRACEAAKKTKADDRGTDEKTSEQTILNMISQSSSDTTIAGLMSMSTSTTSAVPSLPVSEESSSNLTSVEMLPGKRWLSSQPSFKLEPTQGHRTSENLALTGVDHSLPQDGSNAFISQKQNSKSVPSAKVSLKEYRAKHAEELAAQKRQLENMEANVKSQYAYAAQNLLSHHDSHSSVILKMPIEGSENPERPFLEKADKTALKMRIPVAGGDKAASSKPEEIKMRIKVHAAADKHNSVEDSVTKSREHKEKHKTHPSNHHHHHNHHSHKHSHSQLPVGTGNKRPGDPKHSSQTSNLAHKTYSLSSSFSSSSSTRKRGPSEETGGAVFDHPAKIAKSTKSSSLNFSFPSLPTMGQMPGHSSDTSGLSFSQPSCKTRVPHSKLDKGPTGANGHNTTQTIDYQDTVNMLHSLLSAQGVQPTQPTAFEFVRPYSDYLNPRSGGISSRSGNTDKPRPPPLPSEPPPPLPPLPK
CDK9/cyclin T1, sequence (P50750 whole entry): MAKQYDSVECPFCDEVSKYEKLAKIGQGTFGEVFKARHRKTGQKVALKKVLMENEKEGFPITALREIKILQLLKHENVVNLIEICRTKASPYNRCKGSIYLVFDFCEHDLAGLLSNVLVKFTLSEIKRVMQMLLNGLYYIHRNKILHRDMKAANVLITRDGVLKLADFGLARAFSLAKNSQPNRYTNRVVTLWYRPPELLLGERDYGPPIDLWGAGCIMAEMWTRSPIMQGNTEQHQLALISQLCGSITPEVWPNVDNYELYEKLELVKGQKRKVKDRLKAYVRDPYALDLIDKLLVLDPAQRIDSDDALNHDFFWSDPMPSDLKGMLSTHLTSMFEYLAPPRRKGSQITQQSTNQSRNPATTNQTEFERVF
CDK4/Cyclin D3, sequence (P11802 whole entry): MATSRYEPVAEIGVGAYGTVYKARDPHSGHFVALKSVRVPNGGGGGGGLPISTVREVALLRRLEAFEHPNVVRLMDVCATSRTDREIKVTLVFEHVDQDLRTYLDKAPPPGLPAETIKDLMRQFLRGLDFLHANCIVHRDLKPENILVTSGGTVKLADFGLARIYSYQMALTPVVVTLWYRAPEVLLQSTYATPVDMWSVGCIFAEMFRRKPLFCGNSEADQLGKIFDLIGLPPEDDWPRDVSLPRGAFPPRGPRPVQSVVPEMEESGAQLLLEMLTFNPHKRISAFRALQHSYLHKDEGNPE
CDK4/Cyclin D3, sequence (P30281 whole entry, further chain): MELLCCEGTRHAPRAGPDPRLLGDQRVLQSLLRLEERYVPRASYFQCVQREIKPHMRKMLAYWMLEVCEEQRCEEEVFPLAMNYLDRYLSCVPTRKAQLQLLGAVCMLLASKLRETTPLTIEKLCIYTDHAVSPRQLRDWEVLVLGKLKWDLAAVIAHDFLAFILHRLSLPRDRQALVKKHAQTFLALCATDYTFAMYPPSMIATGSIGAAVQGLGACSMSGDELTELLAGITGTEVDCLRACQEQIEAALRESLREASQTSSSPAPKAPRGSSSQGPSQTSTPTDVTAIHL
CDK7/Cyclin H/MNAT1, sequence (P51946 whole entry): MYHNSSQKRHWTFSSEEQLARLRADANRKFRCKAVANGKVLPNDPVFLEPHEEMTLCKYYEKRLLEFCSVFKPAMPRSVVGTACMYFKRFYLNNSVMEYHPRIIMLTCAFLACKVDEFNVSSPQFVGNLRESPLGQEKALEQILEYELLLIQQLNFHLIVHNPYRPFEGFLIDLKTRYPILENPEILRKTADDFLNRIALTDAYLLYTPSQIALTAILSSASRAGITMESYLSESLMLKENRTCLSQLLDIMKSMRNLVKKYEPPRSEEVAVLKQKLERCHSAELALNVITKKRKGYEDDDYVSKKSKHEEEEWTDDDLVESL
CDK7/Cyclin H/MNAT1, sequence (P50613 whole entry): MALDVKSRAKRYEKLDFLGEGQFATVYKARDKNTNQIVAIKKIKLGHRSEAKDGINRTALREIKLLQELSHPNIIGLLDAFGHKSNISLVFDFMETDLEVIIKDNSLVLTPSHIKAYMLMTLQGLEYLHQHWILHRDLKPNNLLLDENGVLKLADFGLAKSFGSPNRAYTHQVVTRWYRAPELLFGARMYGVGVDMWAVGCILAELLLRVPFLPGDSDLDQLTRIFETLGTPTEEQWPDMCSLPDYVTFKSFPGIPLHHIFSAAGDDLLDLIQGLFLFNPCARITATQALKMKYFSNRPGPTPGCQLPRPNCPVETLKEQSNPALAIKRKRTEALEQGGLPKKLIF
CDK7/Cyclin H/MNAT1, sequence (P51948 whole entry, further chain): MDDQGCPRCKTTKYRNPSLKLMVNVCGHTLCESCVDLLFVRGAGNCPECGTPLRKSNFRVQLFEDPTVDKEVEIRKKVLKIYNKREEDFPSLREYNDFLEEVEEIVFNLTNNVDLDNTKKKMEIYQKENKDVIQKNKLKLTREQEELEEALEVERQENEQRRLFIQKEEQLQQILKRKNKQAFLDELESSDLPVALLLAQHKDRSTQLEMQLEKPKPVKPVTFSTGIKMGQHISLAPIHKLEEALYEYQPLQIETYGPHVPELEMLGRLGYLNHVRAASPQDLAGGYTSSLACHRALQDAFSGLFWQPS

SMILES: CC(C)(C)OC(=O)N1CCN(c2ccc(Nc3ncc(F)c(-c4ccc5c(c4)OCCO5)n3)nc2)CC1
IC50 (CDK6/cyclin D1): > 10000 nM

SMILES: CN1CCN(c2ccc(Nc3ncc(F)c(-c4ccc5c(c4)OCCO5)n3)nc2)CC1
IC50 (CDK6/cyclin D1): 660 nM

SMILES: CC(C)N1CCN(Cc2ccc(Nc3ncc(F)c(-c4ccc5c(c4)CCN(C(C)C)C5=O)n3)nc2)CC1
IC50 (CDK6/cyclin D1): 640 nM

SMILES: CC(C)(C)OC(=O)N1CCN(C(=O)c2ccc(Nc3ncc(F)c(-c4ccc5c(c4)OCCO5)n3)nc2)CC1
IC50 (CDK6/cyclin D1): > 10000 nM

SMILES: CC(C)N1CCN(Cc2ccc(Nc3ncc(F)c(-c4ccc5c(c4)CCC(=O)N5C(C)C)n3)nc2)CC1
IC50 (CDK6/cyclin D1): > 1000 nM

SMILES: CC(C)(C)OC(=O)N1CCN(c2ccc(Nc3ncc(F)c(-c4ccc5c(c4)OCO5)n3)nc2)CC1
IC50 (CDK6/cyclin D1): > 10000 nM

SMILES: CCN1CCN(Cc2ccc(Nc3ncc(F)c(-c4cc(F)c5nc(C)n(C(C)C)c5c4)n3)nc2)CC1 [ABEMACICLIB]
Activity (MCF7 [3]): 77.44%
Activity (MCF7 [4]): 17.65%
GI50 (MCF-10A): 5090 nM
Activity (T47D [5]): 81.8%
GI50 (T47D [6]): 771 nM
Activity (T47D [7]): 9.32%
GI50 (MCF7 [1]): 832 nM

SMILES: CCN1CCN(C(=O)c2ccc(Nc3ncc(F)c(-c4ccc5c(c4)CCC(=O)N5C(C)C)n3)nc2)CC1
IC50 (CDK6/cyclin D1): 3720 nM

SMILES: CC(C)(C)OC(=O)N1CCN(Cc2ccc(Nc3ncc(F)c(-c4ccc5c(c4)OCCO5)n3)nc2)CC1
IC50 (CDK6/cyclin D1): > 10000 nM

SMILES: CN1CCN(c2ccc(Nc3ncc(F)c(-c4ccc5c(c4)OCO5)n3)nc2)CC1
IC50 (CDK6/cyclin D1): 1140 nM

SMILES: CC(C)N1CCN(C(=O)c2ccc(Nc3ncc(F)c(-c4ccc5c(c4)CCC(=O)N5C(C)C)n3)nc2)CC1
IC50 (CDK6/cyclin D1): > 1000 nM

SMILES: CC(C)N1CCN(C(=O)c2ccc(Nc3ncc(F)c(-c4ccc5c(c4)OCCC5=O)n3)nc2)CC1
IC50 (CDK6/cyclin D1): 364 nM

SMILES: CC(=O)c1c(C)c2cnc(Nc3ccc(N4CCNCC4)cn3)nc2n(C2CCCC2)c1=O [PALBOCICLIB]
Activity (MCF7 [8]): 81.49%
GI50 (MCF-10A): 19100 nM
Activity (T47D [5]): 84.74%
GI50 (T47D [6]): 1060 nM
Activity (T47D [7]): 6.13%
Activity (MCF7 [9]): 14.51%
GI50 (MCF7 [1]): 3940 nM
GI50 (ZR-75-1): 2280 nM

Continued by falling IC50 (CDK6/cyclin D1), values first:

IC50 (CDK6/cyclin D1): 336 nM
SMILES: CCN1CCN(C(=O)c2ccc(Nc3ncc(F)c(-c4ccc5c(c4)OCCC5=O)n3)nc2)CC1

IC50 (CDK6/cyclin D1): 333 nM
SMILES: CCN1CCN(C(=O)c2ccc(Nc3ncc(F)c(-c4ccc5c(c4)OCO5)n3)nc2)CC1

IC50 (CDK6/cyclin D1): 317 nM
SMILES: CCN1CCN(C(=O)c2ccc(Nc3ncc(F)c(-c4ccc5c(c4)CCN(C(C)C)C5=O)n3)nc2)CC1

IC50 (CDK6/cyclin D1): 296 nM
SMILES: CC(C)N1CCN(C(=O)c2ccc(Nc3ncc(F)c(-c4ccc5c(c4)OCO5)n3)nc2)CC1

IC50 (CDK6/cyclin D1): 254 nM
SMILES: CCN1CCN(Cc2ccc(Nc3ncc(F)c(-c4ccc5c(c4)OCO5)n3)nc2)CC1

IC50 (CDK6/cyclin D1): 138 nM
SMILES: CC(C)N1CCN(Cc2ccc(Nc3ncc(F)c(-c4ccc5c(c4)OCCO5)n3)nc2)CC1

IC50 (CDK6/cyclin D1): 136 nM
SMILES: Fc1cnc(Nc2ccc(CN3CCNCC3)cn2)nc1-c1ccc2c(c1)OCCO2

IC50 (CDK6/cyclin D1): 120 nM
SMILES: Fc1cnc(Nc2ccc(N3CCNCC3)cn2)nc1-c1ccc2c(c1)OCO2

IC50 (CDK6/cyclin D1): 117 nM
SMILES: O=C(c1ccc(Nc2ncc(F)c(-c3ccc4c(c3)OCCO4)n2)nc1)N1CCNCC1

IC50 (CDK6/cyclin D1): 112 nM
SMILES: CCN1CCN(C(=O)c2ccc(Nc3ncc(F)c(-c4ccc5c(c4)OCCO5)n3)nc2)CC1

IC50 (CDK6/cyclin D1): 105 nM
SMILES: CC(C)N1CCN(C(=O)c2ccc(Nc3ncc(F)c(-c4ccc5c(c4)OCCO5)n3)nc2)CC1

IC50 (CDK4/Cyclin D3): 80 nM
IC50 (CDK6/cyclin D1): 97 nM
GI50 (MCF7 [1]): 4710 nM
SMILES: CCN1CCN(Cc2ccc(Nc3ncc(F)c(-c4ccc5c(c4)OCCO5)n3)nc2)CC1

IC50 (CDK4/Cyclin D3): 36 nM
IC50 (CDK6/cyclin D1): 81 nM
GI50 (MCF7 [1]): 3760 nM
SMILES: Fc1cnc(Nc2ccc(N3CCNCC3)cn2)nc1-c1ccc2c(c1)OCCO2

IC50 (CDK4/Cyclin D3): 21 nM
IC50 (CDK6/cyclin D1): 60 nM
GI50 (MCF7 [1]): 3240 nM
SMILES: CCN1CCN(C(=O)c2ccc(Nc3ncc(F)c(-c4ccc5c(c4)CCNC5=O)n3)nc2)CC1

IC50 (CDK9/cyclin T1): 1960 nM
IC50 (CDK7/Cyclin H/MNAT1): 8720 nM
IC50 (CDK4/Cyclin D3): 14 nM
IC50 (CDK6/cyclin D1): 42 nM
GI50 (MCF7 [1]): 3070 nM
IC50 [2]: 6960 nM
IC50 (CDK2/Cyclin A2): 495 nM
SMILES: CC(C)N1CCc2cc(-c3nc(Nc4ccc(N5CCNCC5)cn4)ncc3F)ccc2C1=O

IC50 (CDK9/cyclin T1): 382 nM
IC50 (CDK7/Cyclin H/MNAT1): 8240 nM
IC50 (CDK4/Cyclin D3): 8 nM
IC50 (CDK6/cyclin D1): 36 nM
GI50 (MCF7 [1]): 2900 nM
IC50 [2]: 148 nM
IC50 (CDK2/Cyclin A2): 175 nM
SMILES: O=C1NCCc2cc(-c3nc(Nc4ccc(N5CCNCC5)cn4)ncc3F)ccc21

IC50 (CDK9/cyclin T1): 1040 nM
IC50 (CDK7/Cyclin H/MNAT1): > 10000 nM
IC50 (CDK4/Cyclin D3): 3 nM
IC50 (CDK6/cyclin D1): 32 nM
GI50 (MCF7 [1]): 2970 nM
IC50 [2]: 1210 nM
IC50 (CDK2/Cyclin A2): 676 nM
SMILES: CN1CCc2cc(-c3nc(Nc4ccc(N5CCNCC5)cn4)ncc3F)ccc2C1=O
